Data set [1] deals with normal physiological nociception. Description: Normal physiological nociception after administration. The class given is in vivo. An excerpt:
Compounds of formula (I) are believed to be effective in inhibiting pain perception in mammals suffering from pain, in particular neuropathic and inflammatory pain, even when administered at doses expected to give plasma concentrations well below those known to activate adenosine receptors. […] Therefore, compounds of formula (I) can treat pain (particularly neuropathic and inflammatory pain) without causing the significant side effects associated with administration of other adenosine receptor agonists, and also without reducing normal sensory perception.

In a further data set the target is adenosine receptors (Rattus norvegicus, UniProt P30543). The data set is described as follows: EC50 at adenosine receptors measured at pH 7.4. Type of data set: biochemical.
The test system of data set [2] is static allodynia in a model of neuropathic pain. The data set is described as follows: Static allodynia in a model of neuropathic pain (paw withdrawal threshold). The class given is in vivo. The protocol:
Spongosine and gabapentin were administered (p.o.) in different proportions as indicated in the drawing. The total dose administered is shown on the horizontal axis, and the paw withdrawal threshold (PWT) on the vertical axis. The predicted anti-hyperalgesic effect (derived from the dose response curves obtained with each agent alone) if the effects of the two compounds are additive is shown (●). The observed effects are indicated by (▪).

In another data set the test system is normal rats. The data set is described as follows: Blood pressure and heart rate by implantable radiotelemetry. Type of data set: in vivo, rat. The note with it: 0.624 mg/kg p.o. An excerpt:
An implantable radiotelemetry device was placed in the abdominal cavity of 6 rats per group. The pressure catheter of the device was inserted in the abdominal aorta and two electrodes tunnelised under the skin in a lead II position (left side of abdominal cavity/right shoulder). Individual rats were placed in their own cage on a radioreceptor (DSI) for data acquisition. A: blood pressure; B: heart rate.

For data set [3], the system named is chronic constriction injury of the rat sciatic nerve. Description: Chronic constriction injury model of neuropathic pain, thermal hyperalgesia. Type of data set: in vivo. To be noted: 0.624 mg/kg p.o. An excerpt: After approximately two weeks the rats developed thermal hyperalgesia in the operated leg as judged by the difference in paw withdrawal latencies of the right and left paws.

A short description of data set [4]: Plasma concentration over time after administration. Type of data set: in vivo, rat. The protocol:
It can be seen that the plasma concentration remains above 2% of the EC50 value for more than 3 hours.

The next data set relates to rats. The note with it: cited from earlier work.
Another data set deals with rat A2A receptor (Rattus norvegicus, UniProt P30543). The note with it: read-out: EC50 for stimulation of the rat A2A receptor; cited from earlier work.
Data set [5] deals with carrageenan (CGN) induced thermal hyperalgesia. The data set is described as follows: Carrageenan induced thermal hyperalgesia (CITH). The class given is in vivo. To be noted: 0.624 mg/kg p.o. The method, then: Carrageenan (2%, 10 microlitres) was administered into the right hind paw. A heat source was placed close to the treated and untreated hind paws, and the difference in the paw withdrawal latencies is shown. Spongosine was administered at the same time as carrageenan.

One may read the EC50 as the concentration that produces a half-maximal response.

Each structure is given as a SMILES string.

Chain of rat A2A receptor (P30543 whole entry): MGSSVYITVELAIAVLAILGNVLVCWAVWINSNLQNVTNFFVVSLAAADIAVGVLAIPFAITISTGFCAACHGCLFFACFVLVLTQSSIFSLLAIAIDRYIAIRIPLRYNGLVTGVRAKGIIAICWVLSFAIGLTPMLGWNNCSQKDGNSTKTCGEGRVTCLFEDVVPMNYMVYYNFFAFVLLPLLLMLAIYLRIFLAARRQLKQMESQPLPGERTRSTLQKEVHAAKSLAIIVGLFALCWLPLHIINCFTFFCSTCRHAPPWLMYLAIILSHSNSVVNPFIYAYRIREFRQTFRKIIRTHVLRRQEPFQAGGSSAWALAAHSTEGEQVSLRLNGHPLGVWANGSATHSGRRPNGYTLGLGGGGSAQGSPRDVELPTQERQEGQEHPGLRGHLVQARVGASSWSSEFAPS
Chain of adenosine receptors (P30543 whole entry): as above
Source text for adenosine receptors: For the avoidance of doubt, the EC50 value of a compound is defined herein as the concentration of the compound that provokes a receptor response halfway between the baseline receptor response and the maximum receptor response (as determined, for example, using a dose-response curve).
The EC50 value should be determined under standard conditions (balanced salt solutions buffered to pH 7.4). […] The EC50 could also be determined in vivo by measuring adenosine receptor mediated responses in a normal healthy animal, or even in a tissue perfused under normal conditions (i.e. oxygenated blood, or oxygenated isotonic media, also buffered at pH 7.4) in a normal healthy animal.

With `COc1nc(N)c2ncn([C@@H]3O[C@H](CO)[C@@H](O)[C@H]3O)c2n1` [Spongosine, 2-methoxyadenosine], the “Effect on normal physiological nociception” value in data set [1] was “no effect”. The EC50 at adenosine receptors came to 3000 nM. Besides, the “Effect on static allodynia (paw withdrawal threshold, PWT)” value (shortened to “Effect on static allodynia”) in data set [2] (1.2 mg/kg p.o., in the presence and absence of naloxone (1 mg/kg s.c.)) is “inhibits static allodynia”. In data set [2] (p.o., Example 6), the “Effect on static allodynia” value is reported as “inhibit static allodynia”. In the data set on normal rats, the “Effect on blood pressure” value is “no significant effect” and the “Effect on heart rate” value is on record as “no significant effect”. Besides, in data set [3], the “Effect on thermal hyperalgesia caused by chronic constriction injury (difference in paw withdrawal latencies)” value was “inhibits thermal hyperalgesia” and the “Efficacy compared with carbamazepine (CBZ, 100 mg/kg s.c.) in chronic constriction injury model” value is “as, or more, effective than carbamazepine”. Moreover, the “Blood pressure effect if the peak plasma concentration reaches the EC50 value” in data set [4] (last for hours) is recorded as “profound reductions in blood pressure”. The “Time plasma concentration remains above 2% of the EC50 value” in data set [4] (rat, 0.6 mg/kg) is “more than 3 hours”. Further, in the data set with rats, the “Biological activities in rats” value is “muscle relaxant, hypothermic, hypotensive, and anti-inflammatory activity”. In addition, the EC50 at rat A2A receptor was 3000 nM. Also, the “Efficacy compared with indomethacin (3 mg/kg p.o.) in carrageenan induced thermal hyperalgesia” value in data set [5] was “as effective as indomethacin”. In addition, in data set [5] (given at the same time as carrageenan (2%, 10 microlitres, right hind paw)), the “Effect on carrageenan induced thermal hyperalgesia (difference in paw withdrawal latencies)” value is “inhibits carrageenan (CGN) induced thermal hyperalgesia”.
For `NCC1(CC(=O)O)CCCCC1` [gabapentin, reference compound], the “Effect on static allodynia” value in data set [2] (p.o., Example 6) is “inhibit static allodynia”.

The values are drawn from US7759321B2, “Compounds for the treatment of pain” (Cambridge Biotechnology Ltd, priority 2003, dated 2010).
